Measurements taken from US20110190247A1, “CYCLOPROPYLCHROMENE DERIVATIVES AS MODULATORS OF THE ALPHA-2C RECEPTOR” (Schering Corporation, priority 2008, published 2011).
pKi: −log10 of the molar value.

Legend:
α2C receptor [1] = target: T1, α2C receptor (Homo sapiens, UniProt P18825); experiment: GTPγS assay, efficacy agonist activity (Emax) at α2C; type: biochemical; conditions: for evaluated as agonist of the α2C receptor subtype: by definition: efficacy at α2C 30% Emax (GTPγS assay), functionally selective if efficacy at α2A ≦35% Emax; for evaluated as antagonist of the α2C receptor subtype: by definition: efficacy at α2C <30% Emax (GTPγS assay) and Ki <500 nM
T1 sequence (P18825 1-462): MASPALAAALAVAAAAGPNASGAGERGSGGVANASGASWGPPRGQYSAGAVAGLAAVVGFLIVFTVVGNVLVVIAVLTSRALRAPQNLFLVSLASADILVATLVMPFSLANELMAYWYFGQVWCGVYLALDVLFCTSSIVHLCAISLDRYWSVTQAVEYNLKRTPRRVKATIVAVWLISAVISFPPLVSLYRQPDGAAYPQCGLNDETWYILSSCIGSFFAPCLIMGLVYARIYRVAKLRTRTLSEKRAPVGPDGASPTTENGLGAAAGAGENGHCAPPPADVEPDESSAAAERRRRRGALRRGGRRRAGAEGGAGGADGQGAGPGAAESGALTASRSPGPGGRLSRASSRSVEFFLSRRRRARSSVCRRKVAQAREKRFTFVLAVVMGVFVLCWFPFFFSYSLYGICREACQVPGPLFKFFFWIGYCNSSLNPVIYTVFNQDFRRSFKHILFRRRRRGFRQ
Protocol: Efficacy agonist activity values (Emax, GTPγS assay) for α2A and α2C were determined by following the general procedure detailed by Umland et. al (“Receptor reserve analysis of the human α2c-adrenoceptor using [^35S]GTPγS and cAMP functional assays” European Journal of Pharmacology 2001, 411, 211-221). For the purposes of the present invention, a compound is defined to be a specific or at least functionally selective agonist of the α2C receptor subtype if the compound's efficacy at the α2C receptor is […] (GTPγS assay) and its efficacy at the α2A receptor is ≦35% Emax (GTPγS assay). Additionally, for the purposes of this invention, a compound is defined to be an antagonist of the α2C receptor subtype if the compound's efficacy at the α2C receptor is <30% Emax (GTPγS assay) and the Ki at the α2C receptor subtype was <500 nM, preferentially <200 nM, and most preferentially <20 nM.

α2C receptor [2] = target: T1, α2C receptor; experiment: binding inhibition at the α2C receptor (Ki); conditions: compounds classed as α2C antagonists; read-out: Ki at the α2C receptor subtype

| evaluated as antagonist of the α2C receptor subtype (α2C receptor [1]) | pKi (α2C receptor [2]) | SMILES | evaluated as agonist of the α2C receptor subtype (α2C receptor [1]) |
| --- | --- | --- | --- |
| – | – | Cn1nccc1-c1ccc2c(c1)[C@@H]1[C@H](CO2)[C@H]1c1c[nH]cn1 (racemic) [(±)-2A] | active or functionally selective agonists |
| – | – | Cc1n[nH]c(C)c1-c1ccc2c(c1)[C@@H]1[C@H](CO2)[C@H]1c1c[nH]cn1 (racemic) [(±)-2C] | active or functionally selective agonists |
| antagonist | > 6.70 | c1ncc(-c2ccc3c(c2)[C@@H]2[C@H](CO3)[C@H]2c2c[nH]cn2)cn1 (racemic) [(±)-2] | – |
| antagonist | > 6.70 | Cc1noc(C)c1-c1ccc2c(c1)[C@@H]1[C@H](CO2)[C@H]1c1c[nH]cn1 (racemic) [(±)-2d] | – |
| antagonist | > 6.70 | c1nc([C@@H]2[C@H]3COc4ccc(-c5cn[nH]c5)cc4[C@H]32)c[nH]1 (racemic) [(±)-2e] | – |
| antagonist | > 6.70 | Cc1nn(C)c(C)c1-c1ccc2c(c1)[C@@H]1[C@H](CO2)[C@H]1c1c[nH]cn1 (racemic) [(±)-2f] | – |
| – | – | CCN(C(=O)NC)c1ccc2c(c1)[C@@H]1[C@H](CO2)[C@H]1c1c[nH]cn1 (racemic) [(±)-3] | active or functionally selective agonists |
| – | – | CCN(C(=O)OC)c1ccc2c(c1)[C@@H]1[C@H](CO2)[C@H]1c1c[nH]cn1 (racemic) [(±)-4] | active or functionally selective agonists |
| – | – | COCC(=O)N(C)c1ccc2c(c1)[C@@H]1[C@H](CO2)[C@H]1c1c[nH]cn1 (racemic) [(±)-5] | active or functionally selective agonists |
| antagonist | > 6.70 | CNc1ncncc1-c1ccc2c(c1)[C@@H]1[C@H](CO2)[C@H]1c1c[nH]cn1 (racemic) [(±)-7] | – |
| – | – | CNc1ncnc(C)c1-c1ccc2c(c1)[C@@H]1[C@H](CO2)[C@H]1c1c[nH]cn1 (racemic) [(±)-8] | active or functionally selective agonists |
| antagonist | > 6.70 | CCN(C(=O)COC)c1ccc2c(c1)[C@@H]1[C@H](CO2)[C@H]1c1c[nH]cn1 (racemic) [(±)-100] | – |
| – | – | CNC(=O)N(C)c1ccc2c(c1)[C@@H]1[C@H](CO2)[C@H]1c1c[nH]cn1 (racemic) [(±)-101] | active or functionally selective agonists |
| – | – | COC(=O)N(C)c1ccc2c(c1)[C@@H]1[C@H](CO2)[C@H]1c1c[nH]cn1 (racemic) [(±)-102] | active or functionally selective agonists |
